Assay results: patent US20060051526A1, “Process for producing cellulose acylate film” (Fuji Photo Film Co., Ltd., priority 2002, published 2006)

Columns and labels:
Assay type in all cases: physicochemical
[1] = Solubility test of the additive alone in dichloromethane/methanol mixed solvent (visual, after 4 days); conditions: for Solubility S0 (solids weight concentration at the dissolution limit): CH2Cl2/CH3OH 87/13
Protocol: The solubility of the functional additives was measured as follows.
1. Solutions were prepared by adjusting each concentration in a 50 cc screw cap bottle.
2. Allowed to stand at room temperature for 4 days. Here, the results of the solubility changed between 1 day and 4 days in some cases, and evaluation of the solubility was carried out after 4 days as a time when equilibrium was reached.
3. Samples were prepared in the same manner at other temperatures (20° C., 35° C.), and the solubility after allowing to stand for 4 days was visually inspected.
Predetermined amounts of Example Compounds I-(51) and I-(2) were weighed into a mixed solvent of dichloromethane and methanol, and the solubility was measured by changing the mixing ratio of the organic solvents.
The solubility (solids weight concentration at the dissolution limit was calculated as (C1+C2)/2 when the concentration limit at which it could be dissolved was C1 and the concentration limit at which it could not be dissolved was C2) of the retardation control agent in a mixed solvent having an initial methylene chloride/methanol composition ratio of 87/13 was defined as S0, and the solubility of the retardation control agent when the solvent composition changed, during drying, to 74/26 where the methanol wt % was the maximum was defined as S1. The temperature at which the solubility was measured is denoted by the figure in brackets.

[2] = Measurement of micro heat of solution (multi-purpose calorimeter MPC-110); conditions: for Degree of stabilization: Table 15; for Heat of solution ΔH0: solvent alone, 26.0° C.
Protocol: (2 Measurement of Micro Heat of Solution)
The heat of solution (dissolution enthalpy ΔH) of functional additives was measured as follows, using a multi-purpose calorimeter (MPC-110) manufactured by Tokyo Rikou as a micro heat of solution measuring instrument.
1. Solvent liquids and concentrated solutions were prepared beforehand in 1 L bottles.
2. Preparation of ampoule tubes
(1) Additives (powdered solid) were ground by a mortar and the granules were made uniform.
(2) A required amount (252 mg) of the additive to be measured was weighed into an ampoule tube for measurement of the micro heat of solution.
(3) The neck of the ampoule tube was heated sufficiently by a gas burner so as to seal the ampoule tube.
3. 50 g of the prepared solvent liquid or the concentrated solution was weighed into a measuring vessel. This amount was selected as an amount sufficient to immerse the ampoule tube in the solvent liquid when set in the measuring instrument.
4. The ampoule tube was set in the measuring instrument, which was equipped with an ampoule sealing mechanism, the measuring vessel was hermetically sealed with the ampoule sealing mechanism after confirming that the ampoule tube was immersed in the solvent liquid, it was placed in a constant temperature bath (26.0° C.), and stirring was started.
5. After confirming that the measuring instrument placed in the constant temperature bath had reached equilibrium temperature (about 8 to 12 hours) the ampoule tube was broken so as to mix the additive with the solvent liquid or the concentrated solution.
6. The total amount of heat generated was recorded.
7. The Joule's heat generated was measured by applying a known voltage to the measurement system for an appropriate time, and the recorded chart area for each measurement cell was calibrated using a known amount of heat.
8. The heat of solution of the sample was calculated from the Joule's heat and the measured sample area.
Shown in Table 11 are the solvent composition (wt %) and the solids composition (parts by weight) of the mother liquor when measuring the heat of solution, the type of retardation control agent sealed in the ampoule tube (Example Compounds I-(51) or I-(2)), and the results of measurement of the heat of solution.
The identification symbols of elements constituting the system are as follows: a denotes triacetylcellulose/plasticizer, b denotes triacetylcellulose, and c denotes plasticizer. For example, 2-87a denotes that the retardation control agent is the Example Compound I-(2), the solvent composition (wt %) is dichloromethane/methanol=87/13, and the solids constituting the system are triacetylcellulose and the plasticizer.
The heat of solution ΔH0 denotes the heat of solution (heat absorption) generated when there is no solid in the system (before breaking the ampoule tube) and the retardation control agent is dissolved in a solvent alone. […] The solids concentration of the system when saturation starts is defined as the saturation heat of solution solids concentration (wt %).
In all cases, when the solids concentration of the system is increased, the heat of solution either remains unchanged from that at a solids concentration of 0 wt % (the saturation heat of solution solids concentration is 0) or decreases and becomes saturated. […] This degree of stabilization is expressed as ΔH0−ΔHs, which is the decrease in the heat of solution.

[3] = Solubility test of the additive alone in dichloromethane/methanol mixed solvent (visual, after 4 days)
[4] = 87/13, solids b: triacetylcellulose only
[5] = 87/13, solids c: plasticizer only

## COc1ccc(Nc2nc(Nc3cccc(C)c3)nc(Nc3cccc(C)c3)n2)cc1 [Example Compound I-(2)]
[1]; 20° C., 87/13 vs 74/26
  Ratio S1/S0: 0.636
[1]; 20° C.
  Solubility S0 (solids weight concentration at the dissolution limit): 27.5 wt %
[1]; 25° C., 87/13 vs 74/26
  Ratio S1/S0: 0.636
[1]; 35° C., 87/13 vs 74/26
  Difference S0 − S1: 10 wt %
  Ratio S1/S0: 0.692
[1]; 35° C., CH2Cl2/CH3OH 74/26
  Solubility S1 (solids weight concentration at the dissolution limit): 22.5 wt %
[1]; 35° C.
  Solubility S0 (solids weight concentration at the dissolution limit): 32.5 wt %
[2]; 50/50, solids a
  Degree of stabilization (ΔH0 − ΔHs): 0 kJ/mol
  Saturation heat of solution solids concentration: 0 wt %
[2]; 50/50, solids a: triacetylcellulose/plasticizer
  Heat of solution ΔHs: 25.8 kJ/mol
[2]; 74/26, solids a
  Degree of stabilization (ΔH0 − ΔHs): 0 kJ/mol
  Saturation heat of solution solids concentration: 0 wt %
[2]; 74/26, solids a: triacetylcellulose/plasticizer
  Heat of solution ΔHs: 29.2 kJ/mol
[2]; 87/13, solids a: triacetylcellulose/plasticizer
  Degree of stabilization (ΔH0 − ΔHs): 5.86 kJ/mol
[2]; 87/13, solids a: triacetylcellulose/plasticizer (TPP/BDP)
  Heat of solution ΔHs: 25.5 kJ/mol
[2]; [4]
  Degree of stabilization (ΔH0 − ΔHs): 8.4 kJ/mol
  Heat of solution ΔHs: 23 kJ/mol
[2]; [5]
  Degree of stabilization (ΔH0 − ΔHs): 4.6 kJ/mol
  Heat of solution ΔHs: 26.8 kJ/mol
[2]; 92/8, solids a
  Degree of stabilization (ΔH0 − ΔHs): 5.77 kJ/mol
  Saturation heat of solution solids concentration: 7 wt %
[2]; 92/8, solids a: triacetylcellulose/plasticizer
  Heat of solution ΔHs: 24.4 kJ/mol
[2]; 100/0, solids a
  Degree of stabilization (ΔH0 − ΔHs): 5.65 kJ/mol
  Saturation heat of solution solids concentration: 10 wt %
[2]; 100/0, solids a: triacetylcellulose/plasticizer
  Heat of solution ΔHs: 22.1 kJ/mol
[2]; dope Table 12, solvent composition 87/13
  Degree of stabilization: 5.86 kJ/mol
[2]; dope Table 13, solvent composition 92/8
  Degree of stabilization: 5.77 kJ/mol
[2]; dope Table 14, solvent composition 74/26
  Degree of stabilization: 0 kJ/mol
[2]; case c: only the plasticizer present in the system
  Stabilization by solids in the system (in words): is stabilized
[2]; dichloromethane/methanol 50/50 wt %
  Heat of solution ΔH0: 25.8 kJ/mol
[2]; dichloromethane/methanol 74/26 wt %
  Heat of solution ΔH0: 29.2 kJ/mol
[2]; dichloromethane/methanol 87/13 wt %
  Heat of solution ΔH0: 31.4 kJ/mol
[2]; dichloromethane/methanol 92/8 wt %
  Heat of solution ΔH0: 30.2 kJ/mol
[2]; dichloromethane/methanol 100/0 wt %
  Heat of solution ΔH0: 27.8 kJ/mol
[3]; 20° C. and 35° C.
  Solubility in dichloromethane/methanol mixed solvent (in words): excellent
[3]; 20° C., 87/13 vs 74/26
  Difference S0 − S1: 10 wt %
[3]; 20° C., 92/8 vs 91/9
  Difference S0 − S1: 0 wt %
  Ratio S1/S0: 1.000
[3]; 20° C., CH2Cl2/CH3OH 74/26
  Solubility S1 (solids weight concentration at the dissolution limit): 17.5 wt %
[3]; 20° C., CH2Cl2/CH3OH 91/9
  Solubility S1 (solids weight concentration at the dissolution limit): 32.5 wt %
[3]; 20° C., CH2Cl2/CH3OH 92/8
  Solubility S0 (solids weight concentration at the dissolution limit): 32.5 wt %
[3]; 25° C., 87/13 vs 74/26
  Difference S0 − S1: 10 wt %
[3]; 25° C., 92/8 vs 91/9
  Difference S0 − S1: 0 wt %
  Ratio S1/S0: 1.000
[3]; 25° C., CH2Cl2/CH3OH 74/26
  Solubility S1 (solids weight concentration at the dissolution limit): 17.5 wt %
[3]; 25° C., CH2Cl2/CH3OH 87/13
  Solubility S0 (solids weight concentration at the dissolution limit): 27.5 wt %
[3]; 25° C., CH2Cl2/CH3OH 91/9
  Solubility S1 (solids weight concentration at the dissolution limit): 32.5 wt %
[3]; 25° C., CH2Cl2/CH3OH 92/8
  Solubility S0 (solids weight concentration at the dissolution limit): 32.5 wt %
[3]; 35° C., 92/8 vs 91/9
  Difference S0 − S1: 0 wt %
  Ratio S1/S0: 1.000
[3]; 35° C., CH2Cl2/CH3OH 91/9
  Solubility S1 (solids weight concentration at the dissolution limit): 32.5 wt %
[3]; 35° C., CH2Cl2/CH3OH 92/8
  Solubility S0 (solids weight concentration at the dissolution limit): 32.5 wt %
